According to publication PMC10300102, “In vivo inhibition of nuclear ACE2 translocation protects against SARS-CoV-2 replication and lung damage through epigenetic imprinting” (Nature Communications, 2023):
“And” between values parts separate entries of the source, which are not always exact repeats. Identical values can stand only once. Where a SMILES comes first, the peptide text is derived from it. The star is where a group is joined. Myristoyl = CCCCCCCCCCCCCC(=O)*

Experiments:
[1] = tested on: lung bronchiole and alveoli cell types; test: Cell type deconvolution analysis of NanoString DSP data; format: in vivo, golden Syrian hamsters; parameters: cell type proportion: macrophages: unit not given here; conditions: for cell type proportion: B / cell type proportion: NK / cell type proportion: T / cell type proportion: Treg / cell type proportion: endothelial / cell type proportion: fibroblasts / cell type proportion: mDCs / cell type proportion: macrophages / cell type proportion: mast / cell type proportion: monocytes / cell type proportion: neutrophils / cell type proportion: pDCs / cell type proportion: plasma: individual ROIs of H023 and H017
Procedure: Cell type deconvolution analysis was performed using R package SpatialDecon[68]. The Q3 normalized count matrix from NanoString DSP data and the safeTME[68] immune cell profile matrix were used as the query and reference input, respectively, to reveal cell type abundance within each of the selected ROIs. Cell type proportion for each selected ROI was visualized using a stack bar plot, where ROIs were grouped by tissue region (bronchioles vs. alveoli) and experimental condition (control and NACE2i-treated samples). In addition, given the non-normal distribution of the data, the Wilcoxon test was performed to compare each cell type proportion in controls against NACE2i-treated ROIs. The distribution of each cell type and p-value for the comparisons were visualized in box plots.

H3K27ac = tested on: H3K27ac; parameters: species or system golden Syrian hamsters; conditions: hamster, in vivo
SARS-CoV-2 = tested on: SARS-CoV-2; parameters: species or system golden Syrian hamsters; conditions: hamster, in vivo
PBMCs = format: cell-based, human; conditions: 10 µM 24 h

CCCCCCCCCCCCCC(=O)N[C@H](C(=O)NCC(=O)N[C@H](C(=O)N[C@@H](CCCNC(=N)N)C(=O)N[C@@H](CC(=O)O)C(=O)N[C@@H](CCCNC(=N)N)C(=O)N[C@@H](CCCCN)C(=O)N[C@@H](CCCCN)C(=O)N[C@@H](CCCCN)C(=O)N[C@@H](CC(N)=O)C(=O)N[C@@H](CCCCN)C(=O)N[C@@H](C)C(=O)N[C@@H](CCCNC(=N)N)C(=O)N[C@@H](CO)C(=O)O)[C@@H](C)CC)[C@@H](C)O [NACE2i] (Myristoyl-TGIRDRKKKNKARS-OH)
cell type proportion: B ([1]; Alveoli_NACE2i): 23.6847 and 32.4439 and 22.6247 and 29.4388 and 26.4374 and 25.048 and 27.5277 and 28.9903 and 27.2409 and 34.2892 and 28.9637 and 28.8675 | cell type proportion: NK ([1]; Alveoli_NACE2i): 17.1939 and 16.5847 and 20.9543 and 18.0108 and 22.2943 and 18.4617 and 20.087 and 18.6524 and 17.3616 and 14.6317 and 17.3619 and 17.6717 | cell type proportion: T ([1]; Alveoli_NACE2i): 16.6413 and 6.4009 and 15.4997 and 7.4175 and 8.025 and 5.045 and 6.1551 and 0 (2×) and 10.2833 and 5.973 and 3.9643 | cell type proportion: Treg ([1]; Alveoli_NACE2i): 0 (6×) and 1.553 and 8.1921 and 4.323 and 1 and 11.0807 and 5.06 | cell type proportion: endothelial ([1]; Alveoli_NACE2i): 28.1806 and 29.4553 and 29.583 and 29.8626 and 25.5168 and 33.6067 and 33.1024 and 36.1595 and 33.2493 and 33.1189 and 27.1461 and 36.2683 | cell type proportion: fibroblasts ([1]; Alveoli_NACE2i): 1.176 and 0.714 and 0.4633 and 0.8459 and 0.7981 and 0.4825 and 0.7109 and 0.76 and 1.098 and 0.6031 and 0.7444 and 1.019 | cell type proportion: mDCs ([1]; Alveoli_NACE2i): 0 (10×) and 0.2521 and 0.6557 | cell type proportion: macrophages ([1]; Alveoli_NACE2i): 5.388 and 3.326 and 1.773 and 2.095 and 8.024 and 0.205 and 7.196 and 5.143 and 2.92 and 3.5372 and 2.755 and 4.269 | cell type proportion: mast ([1]; Alveoli_NACE2i): 3.016 and 2.78 and 3.108 and 4.739 and 2.682 and 3.555 and 2.55 and 3.279 and 2.68 and 3.582 and 4.658 and 2.8819 | cell type proportion: monocytes ([1]; Alveoli_NACE2i): 0.03537 and 0 (11×) | cell type proportion: neutrophils ([1]; Alveoli_NACE2i): 1.753 and 2.9035 and 1.994 and 3.2852 and 1.817 and 0.9729 and 2.361 and 0.2488 and 2.135 and 0.8335 and 0.7054 and 0.8644 | cell type proportion: pDCs ([1]; Alveoli_NACE2i): 0 | cell type proportion: plasma ([1]; Alveoli_NACE2i): 2.932 and 5.391 and 3.999 and 2.753 and 4.405 and 4.431 and 0.3105 and 2.193 and 2.376 and 2.431 and 2.621 and 3.0985 | cell type proportion: B ([1]; Bronchiole_NACE2i): 0 (4×) and 36.4151 and 8.716 and 15.9886 and 32.8168 and 11.1034 and 35.5652 and 45.4372 and 7.351 | cell type proportion: NK ([1]; Bronchiole_NACE2i): 23.9964 and 22.2229 and 20.8895 and 32.9425 and 10.1656 and 15.473 and 6.835 and 10.348 and 25.7402 and 11.1678 and 15.6048 and 32.6588 | cell type proportion: T ([1]; Bronchiole_NACE2i): 18.2436 and 18.4266 and 38.1438 and 0 (3×) and 5.53 and 45.4382 and 35.2758 and 13.8104 and 20.1994 and 29.1879 | cell type proportion: Treg ([1]; Bronchiole_NACE2i): 0 (5×) and 21.836 and 33.8509 and 20.1505 and 4.85 and 5.947 and 12.5635 and 16.1845 | cell type proportion: endothelial ([1]; Bronchiole_NACE2i): 16.4013 and 5.225 and 10.2999 and 2.966 and 17.2008 and 10.2265 and 6.188 and 5.584 and 8.968 and 11.6958 and 12.5764 and 14.8185 | cell type proportion: fibroblasts ([1]; Bronchiole_NACE2i): 2.825 and 0.8593 and 2.185 and 1.129 and 1.957 and 1.105 and 1.635 and 0.3982 and 0.8306 and 1.6 and 2.113 and 2.3944 | cell type proportion: mDCs ([1]; Bronchiole_NACE2i): 0 (10×) and 0.9775 and 1.142 | cell type proportion: macrophages ([1]; Bronchiole_NACE2i): 5.529 and 0 and 0.1628 and 4.651 and 2.104 and 14.1819 and 29.1261 and 22.5397 and 28.7793 and 1.462 and 3.082 and 5.048 | cell type proportion: mast ([1]; Bronchiole_NACE2i): 7.052 and 8.207 and 2.9723 and 2.068 and 4.233 and 1.198 and 2.171 and 3.272 and 0 and 1.897 and 1.1071 and 8.014 | cell type proportion: monocytes ([1]; Bronchiole_NACE2i): 0 (11×) and 0.2701 | cell type proportion: neutrophils ([1]; Bronchiole_NACE2i): 9.945 and 11.5606 and 12.9563 and 15.2877 and 1.922 and 0 and 1.136 and 5.344 and 0.585 and 0.3256 and 4.512 and 3.83 | cell type proportion: pDCs ([1]; Bronchiole_NACE2i): 0.5957 and 4.06 and 4.2347 and 0 (6×) and 1.875 and 1.074 and 1.693 | cell type proportion: plasma ([1]; Bronchiole_NACE2i): 15.4112 and 7.333 and 8.156 and 7.105 and 0.3226 and 1.788 and 1.644 and 1.037 and 2.72 and 1.151 and 2.026 and 6.866 | NK cells in bronchiolar regions ([1]; infected hamsters 2 dpi): increased | macrophages in bronchiolar regions ([1]; infected hamsters 2 dpi): significantly decreased | H3K27ac along with ACE2me in lung tissues (H3K27ac): significant H3K27ac induction | lung infectious titers (TCID50) (SARS-CoV-2): significantly reduced | IL-6 expression (PBMCs): reduced | perforin expression (PBMCs): increased
